This is an account of results in US12674038B2, “Composition and method for microbial control for use with polymers” (MICROBAN PRODUCTS COMPANY, priority 2022, dated 2026).

In this test the test system is Escherichia coli (gram-negative bacteria). As to the kind of experiment: Antimicrobial efficacy of polymer samples against Escherichia coli, ISO22196 test method. Conditions: E. coli.

Regarding `O=C(O)c1ccccc1` [GBA, benzoic acid], for the setting “5250 ppm level in TPU”, the “log reduction (consistent antimicrobial efficacy)” value is on record as greater than 1. Besides, the log reduction result (TPU, 4500 ppm GBA alone) is recorded as “less than 1”.
